In patent US20130150434A1 (SOMAXON PHARMACEUTICALS, INC., priority 2006, published 2013):

Experiments:
[1] = tested on: chronic primary insomnia patients with sleep maintenance difficulties; assay: Phase III study of doxepin, rebound insomnia by PSG during the 2-day discontinuation period; assay type: in vivo, human; settings: for WASO (rebound insomnia analysis), Median: Baseline = worst WASO value of Nights −6 and −5; for WASO (rebound insomnia analysis), Mean (SD): Baseline = worst WASO value of Nights −6 and −5 from Visit 3; for WASO, Change from Baseline to Visit 7, Night 36, Median / WASO, Change from Baseline to Visit 7, Night 37, Median / WASO, Change from Baseline to Visit 7, Night 36, Mean (SD) / WASO, Change from Baseline to Visit 7, Night 37, Mean (SD): discontinuation
Source text: The term “rebound insomnia” refers to the common occurrence that a person may have more trouble sleeping the first few nights after a sedative medicine is stopped than before starting the medicine. After more than a few days' use, discontinuing a hypnotic or sedative medication can make the original sleep problem worse and can cause an increase anxiety. Rebound insomnia may be measured as the mean change in mean wake time after sleep onset (WASO) from baseline to the first night of discontinuation.
Patients were discharged from the sleep center after all final study-related procedures had been completed on the Final Study Day (Day 38, Early Termination [ET]).
Safety: Safety was assessed based on AEs, clinical laboratory tests (hematology, serum chemistry, and urinalysis), vital signs, physical examinations, neurological assessments, 12-lead ECGs, and ratings of hangover/residual effects (digit-symbol substitution test (DSST), symbol copying test (SCT), and the visual analog scale (VAS) for sleepiness), assessment of rebound insomnia using PSG recordings during the discontinuation period, and withdrawal symptoms using the benzodiazepine withdrawal symptom questionnaire (BWSQ).

[2] = tested on: chronic primary insomnia patients with sleep maintenance difficulties; assay: Phase III study of doxepin, 8-hour PSG efficacy variables (WASO, TST, SE, LPS)
Source text: Patients with at least a 3-month history of primary insomnia, according to Diagnostic and Statistical Manual of Mental Disorders, Fourth Edition Text Revision (DSM-IV-TR)-defined primary insomnia were enrolled.
Patients were screened (Visit 1) to determine study eligibility and asked to discontinue any protocol-disallowed prescription or over-the-counter (OTC) medications used as sleep medication. At the beginning of the first week (polysomnography [PSG] Screening, Visit 2), eligible patients began two weeks of single-blind placebo dosing and had two consecutive nights of 8-hour PSG recording in the sleep center. Patients were required to meet the PSG screening criteria to remain eligible for the study. Patients were allowed to leave the sleep center during the day after the PSG Screening nights and continued to take single-blind placebo after PSG Screening (Visit 2) for five consecutive nights at home.
Patients were allowed to leave the sleep center during the day after the PSG nights and continued taking single-blind placebo for five consecutive nights at home.
After the PSG Screening and Baseline periods, patients began a 35-day double-blind treatment period during which they were given study drug supplies at each scheduled visit (Visits 4, 5, and 6). The scheduled study visits consisted of two consecutive nights of 8-hour PSG recording in the sleep center and next day assessments to assess sedative efficacy. Patients were asked to complete hangover/residual effects assessments, morning and evening questionnaires, and the Benzodiazepine Withdrawal Symptom Questionnaire (BWSQ) at each of these visits.
Primary Efficacy: The primary efficacy variable was wake after sleep onset (WASO) obtained on Night 1 as determined by PSG recordings using the ITT analysis set.
Additional PSG efficacy variables: Additional efficacy variables obtained on the first PSG assessment nights (Nights 1 and 29) included WASO (Night 29), wake time during sleep (WTDS), total sleep time (TST), sleep efficiency (SE), including whole night, third of the night, and by hour, and latency to persistent sleep (LPS), latency to Stage 2 sleep, number of awakenings after sleep onset (NAASO), total wake time (TWT), wake time after sleep (WTAS), and, sleep architecture including percentage and minutes of Stage 1, 2, and 3/4 non-rapid eye movement (NREM) sleep, percentage and minutes of rapid eye movement (REM) sleep, and latency to REM sleep.
Methods used to analyze other endpoints were the same as those used to analyze WASO. For LPS, latency to REM sleep, latency to Stage 2 sleep, and LSO, data were expected to be log-normally distributed and were analyzed using log-transformed values (base 10). The safety data were analyzed primarily using descriptive statistical methods.
All efficacy analyses were performed on the Intent-to-treat (ITT) analysis set. […] Data were analyzed as randomized and based on observed cases.

[3] = Doxepin HCl 3 mg group, Night 36, N = 67 evaluable
[4] = Doxepin HCl 3 mg group, Night 36 and Night 37, N = 67 evaluable
[5] = Doxepin HCl 3 mg group, Visit 7, Night 37 (discontinuation)
[6] = Doxepin HCl 6 mg group, Night 36, N = 68 evaluable
[7] = Doxepin HCl 6 mg group, Night 36 and Night 37, N = 68 evaluable
[8] = Doxepin HCl 6 mg group, Visit 7, Night 37 (discontinuation)
[9] = doxepin 3 mg group, Baseline, ITT
[10] = doxepin 3 mg, Night 1, ITT, p<0.0001 vs placebo
[11] = doxepin 3 mg, Night 15, ITT, p 0.1977 vs placebo
[12] = doxepin 3 mg, Night 29, ITT, p 0.0262 vs placebo

Rebound insomnia (mean change in mean WASO from baseline to the first night of discontinuation) ([1]; 3 mg and 6 mg, 2-day discontinuation period following abrupt discontinuation of 35 nights of treatment): no rebound insomnia
Largest percentage of patients experiencing rebound effects ([1]; 3 mg group at night 36, as measured by mean change in WASO): 15%
WASO (rebound insomnia analysis), Median ([1]; Doxepin HCl 3 mg group): 79.5 min
WASO (rebound insomnia analysis), Mean (SD) ([1]; Doxepin HCl 3 mg group): 83.5 (41.35) minutes
Rebound insomnia frequency: patients with LPS change from Baseline ≧20 minutes at Visit 7, count (%) [1, 3]: 7 (10%)
Rebound insomnia frequency: patients with TST change from Baseline ≦−30 minutes at Visit 7, count (%) [1, 3]: 9 (13%)
Rebound insomnia frequency: patients with WASO change from Baseline ≧35 minutes at Visit 7, count (%) [1, 3]: 10 (15%)
Rebound insomnia frequency: patients with LPS change from Baseline ≧20 minutes at Visit 7, count (%) [1, 4]: 3 (4%)
Rebound insomnia frequency: patients with TST change from Baseline ≦−30 minutes at Visit 7, count (%) [1, 4]: 3 (4%)
Rebound insomnia frequency: patients with WASO change from Baseline ≧35 minutes at Visit 7, count (%) [1, 4]: 1 (1%)
WASO, Median ([1]; Doxepin HCl 3 mg group, Visit 7, Night 36 (discontinuation)): 50.5 min
WASO, Mean (SD) ([1]; Doxepin HCl 3 mg group, Visit 7, Night 36 (discontinuation, single-blind placebo after 35 nights of treatment)): 65.8 (48.72) minutes
WASO, Mean (SD) [1, 5]: 58.4 (42.76) minutes
WASO, Median [1, 5]: 48.8 min
WASO, Change from Baseline to Visit 7, Night 36, Median ([1]; Doxepin HCl 3 mg group): -22.0 min
WASO, Change from Baseline to Visit 7, Night 37, Median ([1]; Doxepin HCl 3 mg group): -20.8 min
WASO, Change from Baseline to Visit 7, Night 36, Mean (SD) ([1]; Doxepin HCl 3 mg group, 95% CI (−30.28, −6.57)): −18.4 (48.60) minutes
WASO, Change from Baseline to Visit 7, Night 37, Mean (SD) ([1]; Doxepin HCl 3 mg group, 95% CI (−35.26, −14.11)): −24.7 (43.02) minutes
WASO (rebound insomnia analysis), Median ([1]; Doxepin HCl 6 mg group): 72.5 min
WASO (rebound insomnia analysis), Mean (SD) ([1]; Doxepin HCl 6 mg group): 78.4 (40.37) minutes
Rebound insomnia frequency: patients with LPS change from Baseline ≧20 minutes at Visit 7, count (%) [1, 6]: 8 (12%)
Rebound insomnia frequency: patients with TST change from Baseline ≦−30 minutes at Visit 7, count (%) [1, 6]: 6 (9%)
Rebound insomnia frequency: patients with WASO change from Baseline ≧35 minutes at Visit 7, count (%) [1, 6]: 7 (10%)
Rebound insomnia frequency: patients with LPS change from Baseline ≧20 minutes at Visit 7, count (%) [1, 7]: 2 (3%)
Rebound insomnia frequency: patients with TST change from Baseline ≦−30 minutes at Visit 7, count (%) [1, 7]: 2 (3%)
Rebound insomnia frequency: patients with WASO change from Baseline ≧35 minutes at Visit 7, count (%) [1, 7]: 3 (4%)
WASO, Median ([1]; Doxepin HCl 6 mg group, Visit 7, Night 36 (discontinuation)): 46.0 min
WASO, Mean (SD) ([1]; Doxepin HCl 6 mg group, Visit 7, Night 36 (discontinuation, single-blind placebo after 35 nights of treatment)): 55.9 (40.26) minutes
WASO, Mean (SD) [1, 8]: 56.0 (42.68) minutes
WASO, Median [1, 8]: 49.0 min
WASO, Change from Baseline to Visit 7, Night 36, Median ([1]; Doxepin HCl 6 mg group): -16.5 min
WASO, Change from Baseline to Visit 7, Night 37, Median ([1]; Doxepin HCl 6 mg group): -20.0 min
WASO, Change from Baseline to Visit 7, Night 36, Mean (SD) ([1]; Doxepin HCl 6 mg group, 95% CI (−34.99, −12.27)): −23.6 (46.93) minutes
WASO, Change from Baseline to Visit 7, Night 37, Mean (SD) ([1]; Doxepin HCl 6 mg group, 95% CI (−36.26, −12.38)): −24.3 (47.41) minutes
SMILES: CN(C)CCC=C1c2ccccc2COc2ccccc21 [Doxepin, 11-(3-dimethylaminopropylidene)-6,11-dihydrodibenzo (b,e)oxepin]
Sedative tolerance (sleep maintenance variables across study visits, PSG) ([2]; 3 mg and 6 mg, 35-day double-blind treatment): no evidence of sedative tolerance
8-hour WASO, Mean (SD) ([2]; doxepin 3 mg group, Baseline (single-blind placebo), ITT): 67.8 (33.56) minutes
LPS (latency to persistent sleep, PSG), Mean (SD) [2, 9]: 35.9 (29.84) minutes
SE - Hour 8 (PSG), Mean (SD) [2, 9]: 74.9 (22.87) %
TST (8-hour PSG), Mean (SD) [2, 9]: 380.3 (46.09) minutes
8-hour WASO, Mean (SD) ([2]; doxepin 3 mg, Night 1 (primary), ITT, p<0.0001 vs placebo): 41.4 (31.51) minutes
LPS (PSG), Mean (SD) ([2]; doxepin 3 mg, Night 1, ITT, p 0.0110 vs placebo): 26.7 (23.42) minutes
SE (8-hour PSG), Mean (SD) [2, 10]: 86.5 (8.68) %
SE - Hour 8 (PSG), Mean (SD) [2, 10]: 87.8 (14.28) %
TST (8-hour PSG), Mean (SD) [2, 10]: 415.3 (41.65) minutes
8-hour WASO, Mean (SD) ([2]; doxepin 3 mg, Night 15, ITT, p 0.0053 vs placebo): 44.8 (27.26) minutes
SE (8-hour PSG), Mean (SD) [2, 11]: 83.7 (10.12) %
TST (8-hour PSG), Mean (SD) [2, 11]: 401.7 (48.56) minutes
LPS (PSG), Mean (SD) ([2]; doxepin 3 mg, Night 15, ITT, p 0.3644 vs placebo): 38.2 (40.52) minutes
SE (8-hour PSG), Mean (SD) [2, 12]: 85.0 (10.92) %
TST (8-hour PSG), Mean (SD) [2, 12]: 408.1 (52.41) minutes
